Test results from patent US9540366B2, “Ring-fused heterocyclic compound” (Kyowa Hakko Kirin Co., Ltd., priority 2012, dated 2017).
Where two headings read alike, the source gives them in different places.

Target: T1, human Cav3.2 T-type Ca2+ channel (Homo sapiens, UniProt O95180)
T1 construct: expressed in transfected cells; host or cells: KJMGER8 cells (Namalwa cell-derived cell line)
Experiment: Inhibitory effect for intracellular calcium response via Cav3.2 T-type Ca2+ channels (FLIPR Calcium 3 Assay Kit)
Type: cell-based

T1 sequence (O95180 whole entry): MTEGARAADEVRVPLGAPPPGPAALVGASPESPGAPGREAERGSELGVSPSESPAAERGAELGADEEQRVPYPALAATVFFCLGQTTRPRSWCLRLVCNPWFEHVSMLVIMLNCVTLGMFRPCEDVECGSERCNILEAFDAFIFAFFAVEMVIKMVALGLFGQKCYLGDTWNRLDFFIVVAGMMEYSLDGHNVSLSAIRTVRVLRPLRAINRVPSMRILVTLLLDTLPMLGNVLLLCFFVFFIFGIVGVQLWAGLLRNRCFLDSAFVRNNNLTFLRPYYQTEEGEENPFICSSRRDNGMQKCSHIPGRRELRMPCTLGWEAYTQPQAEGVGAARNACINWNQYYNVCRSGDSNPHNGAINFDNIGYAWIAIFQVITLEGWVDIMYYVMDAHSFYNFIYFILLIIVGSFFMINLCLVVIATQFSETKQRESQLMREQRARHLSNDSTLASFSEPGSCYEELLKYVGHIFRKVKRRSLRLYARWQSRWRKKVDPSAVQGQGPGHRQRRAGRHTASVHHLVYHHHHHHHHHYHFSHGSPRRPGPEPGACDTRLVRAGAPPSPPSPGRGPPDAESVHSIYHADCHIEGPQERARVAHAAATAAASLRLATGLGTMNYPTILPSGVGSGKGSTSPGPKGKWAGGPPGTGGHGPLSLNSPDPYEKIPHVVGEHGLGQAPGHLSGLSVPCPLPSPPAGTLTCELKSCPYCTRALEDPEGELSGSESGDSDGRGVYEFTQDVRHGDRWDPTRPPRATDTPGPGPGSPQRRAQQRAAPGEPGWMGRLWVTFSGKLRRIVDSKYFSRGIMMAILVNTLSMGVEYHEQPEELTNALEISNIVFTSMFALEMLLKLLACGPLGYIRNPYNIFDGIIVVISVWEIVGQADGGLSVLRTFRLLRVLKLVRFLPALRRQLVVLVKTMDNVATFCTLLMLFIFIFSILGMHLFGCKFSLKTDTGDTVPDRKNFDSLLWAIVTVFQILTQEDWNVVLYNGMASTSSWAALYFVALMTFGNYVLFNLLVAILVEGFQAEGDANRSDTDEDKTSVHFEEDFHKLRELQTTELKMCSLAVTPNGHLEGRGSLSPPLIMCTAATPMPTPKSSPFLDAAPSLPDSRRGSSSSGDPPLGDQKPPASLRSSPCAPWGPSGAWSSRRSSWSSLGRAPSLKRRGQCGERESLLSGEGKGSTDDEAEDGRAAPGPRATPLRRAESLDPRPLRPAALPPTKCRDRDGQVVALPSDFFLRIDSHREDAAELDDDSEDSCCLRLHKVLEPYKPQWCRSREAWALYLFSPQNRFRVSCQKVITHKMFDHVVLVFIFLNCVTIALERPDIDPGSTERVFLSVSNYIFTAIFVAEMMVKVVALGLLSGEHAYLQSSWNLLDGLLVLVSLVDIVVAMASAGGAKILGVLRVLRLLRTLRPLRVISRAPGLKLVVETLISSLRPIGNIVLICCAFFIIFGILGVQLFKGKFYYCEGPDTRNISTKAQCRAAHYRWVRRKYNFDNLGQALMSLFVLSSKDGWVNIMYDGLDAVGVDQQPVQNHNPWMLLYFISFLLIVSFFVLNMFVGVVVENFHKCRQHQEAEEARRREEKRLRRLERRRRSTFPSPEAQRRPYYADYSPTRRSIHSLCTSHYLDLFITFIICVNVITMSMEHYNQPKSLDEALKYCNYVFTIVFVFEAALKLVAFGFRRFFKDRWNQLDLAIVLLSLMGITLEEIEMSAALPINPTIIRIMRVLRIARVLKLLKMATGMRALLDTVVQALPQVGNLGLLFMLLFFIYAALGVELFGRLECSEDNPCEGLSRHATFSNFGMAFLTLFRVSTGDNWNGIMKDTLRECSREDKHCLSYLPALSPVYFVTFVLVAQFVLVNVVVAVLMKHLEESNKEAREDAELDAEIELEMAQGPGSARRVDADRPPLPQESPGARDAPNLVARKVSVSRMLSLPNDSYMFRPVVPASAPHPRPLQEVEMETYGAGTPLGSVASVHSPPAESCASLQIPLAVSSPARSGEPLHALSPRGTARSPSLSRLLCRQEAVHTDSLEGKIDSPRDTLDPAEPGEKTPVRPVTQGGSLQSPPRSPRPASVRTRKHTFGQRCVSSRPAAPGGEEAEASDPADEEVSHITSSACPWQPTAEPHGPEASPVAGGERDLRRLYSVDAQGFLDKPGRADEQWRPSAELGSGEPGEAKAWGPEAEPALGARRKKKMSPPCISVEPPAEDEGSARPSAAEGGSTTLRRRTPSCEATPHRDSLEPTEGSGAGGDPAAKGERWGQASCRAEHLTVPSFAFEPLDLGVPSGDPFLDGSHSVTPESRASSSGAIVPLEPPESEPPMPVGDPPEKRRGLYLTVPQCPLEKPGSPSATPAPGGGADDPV

SMILES	IC50	IC50 (human Cav3.2-expressing KJMGER8 cells (Namalwa-derived), calcium response induced by 5 mmol/L CaCl2, 3 μmol/L mibefradil as reference, read-out: IC50 for the human Cav3.2 T-type Ca2+ current)
CC(F)(F)c1nc2cc(C(=O)NC3CCOCC3)cc(C#N)n2c1CC1CCC(F)(F)CC1 [Compound 159, 5-Cyano-3-[(4,4-difluorocyclohexyl)methyl]-2-(1,1-difluoroethyl)-N-(tetrahydro-2H-pyran-4-yl)imidazo[1,2-a]pyridine-7-carboxamide]	≤ 100 nM	
CC(C)(C)C(=O)CNC(=O)c1cc(C#N)n2c(CC3CCC(F)(F)CC3)c(C(F)(F)F)nc2c1 [Compound 160, 5-Cyano-3-[(4,4-difluorocyclohexyl)methyl]-N-(3,3-dimethyl-2-oxobutyl)-2-(trifluoromethyl)imidazo[1,2-a]pyridine-7-carboxamide]	≤ 100 nM	
CCOC(=O)C1(NC(=O)c2cc(C#N)n3c(CC4CCC(F)(F)CC4)c(C(F)(F)F)nc3c2)CC1 [Compound 161, Ethyl 1-{5-cyano-3-[(4,4-difluorocyclohexyl)methyl]-2-(trifluoromethyl)imidazo[1,2-a]pyridine-7-carboxamide}cyclopropanecarboxylate]	≤ 100 nM	
CC(C)(CO)NC(=O)c1cc(C#N)n2c(CC3CCC(F)(F)CC3)c(C(F)(F)F)nc2c1 [Compound 162]	≤ 100 nM	
CC(C)(Oc1ccccc1)c1c(C(F)(F)F)nc2cc(C(=O)Nc3ccccc3)ccn12 [Compound 163, 3-(2-Phenoxypropan-2-yl)-N-phenyl-2-(trifluoromethyl)imidazo[1,2-a]pyridine-7-carboxamide]		≤ 100 nM
Cc1c(C(=O)NC2CCOCC2)cc(C)n2c(CC3CCC(F)(F)CC3)c(C(F)(F)F)nc12 [Compound 166, 3-[(4,4-Difluorocyclohexyl)methyl]-5,8-dimethyl-N-(tetrahydro-2H-pyran-4-yl)-2-(trifluoromethyl)imidazo[1,2-a]pyridine-7-carboxamide]	≤ 100 nM	
Cc1c(C(=O)NC2CCOCC2)cc2nc(C(F)(F)F)c(CC3CCC(F)(F)CC3)n2c1C [Compound 167, 3-[(4,4-Difluorocyclohexyl)methyl]-5,6-dimethyl-N-(tetrahydro-2H-pyran-4-yl)-2-(trifluoromethyl)imidazo[1,2-a]pyridine-7-carboxamide]	≤ 100 nM	
CC(C)c1nc2cc(C(=O)NC3CC(F)(F)C3)cc(C#N)n2c1CC1CCC(F)(F)CC1 [Compound 170, 5-Cyano-N-(3,3-difluorocyclobutyl)-3-[(4,4-difluorocyclohexyl)methyl]-2-isopropylimidazo[1,2-a]pyridine-7-carboxamide]	≤ 100 nM	
CC(C)c1nc2cc(C(=O)NCC(F)(F)F)cc(C#N)n2c1CC1CCC(F)(F)CC1 [Compound 171, 5-Cyano-3-[(4,4-difluorocyclohexyl)methyl]-2-isopropyl-N-(2,2,2-trifluoroethyl)imidazo[1,2-a]pyridine-7-carboxamide]	≤ 100 nM	
O=C(NCC(=O)N1CC(F)(F)C1)c1cc(Cl)n2c(CC3CCC(F)(F)CC3)c(C(F)(F)F)nc2c1 [Compound 172, 5-Chloro-N-[2-(3,3-difluoroazetidin-1-yl)-2-oxoethyl]-3-[(4,4-difluorocyclohexyl)methyl]-2-(trifluoromethyl)imidazo[1,2-a]pyridine-7-carboxamide]	≤ 100 nM	
O=C(NCC1(CO)CC1)c1cc(Cl)n2c(CC3CCC(F)(F)CC3)c(C(F)(F)F)nc2c1 [Compound 174, 5-Chloro-3-[(4,4-difluorocyclohexyl)methyl]-N-{[1-(hydroxymethyl)cyclopropyl]methyl}-2-(trifluoromethyl)imidazo[1,2-a]pyridine-7-carboxamide]	≤ 100 nM	
N#CC1(NC(=O)c2cc(Cl)n3c(CC4CCC(F)(F)CC4)c(C(F)(F)F)nc3c2)CC1 [Compound 175, 5-Chloro-N-(1-cyanocyclopropyl)-3-[(4,4-difluorocyclohexyl)methyl]-2-(trifluoromethyl)imidazo[1,2-a]pyridine-7-carboxamide]	≤ 100 nM	
CC(C)c1nc2cc(C(=O)NCC(C)(F)F)cc(C#N)n2c1CC1CCC(F)(F)CC1 [Compound 177, 5-Cyano-3-[(4,4-difluorocyclohexyl)methyl]-N-(2,2-difluoropropyl)-2-isopropylimidazo[1,2-a]pyridine-7-carboxamide]	≤ 100 nM	
